Experiments:
HT29 Colon Cancer = test: MTT growth inhibition assay, HT29 Colon Cancer; type: cell-based; conditions: Homo sapiens, HT-29, HT29 Colon Cancer cells
Experimental: (§1) Each of the following compounds was tested for growth inhibition in a MTT assay against B16 Murine Melanoma and HT29 Colon Cancer, reported as IC50(μM).

B16 Murine Melanoma = test: MTT growth inhibition assay, B16 Murine Melanoma; type: cell-based; conditions: Mus musculus, B16 Murine Melanoma cells
Experimental: as §1

| SMILES | IC50 (HT29 Colon Cancer) [µM] | IC50 (B16 Murine Melanoma) [µM] |
| --- | --- | --- |
| O=c1cnnc(N/N=C/c2ccccc2O)[nH]1 [Compound I, benzaldehyde, 2-hydroxy-, (4-hydro-5-oxo-1,2,4-triazin-3-yl)hydrazide] | 0.007 | 0.264 |
| Cc1nnc(N/N=C/c2ccccc2O)[nH]c1=O [Compound II, benzaldehyde, 2-hydroxy-, (4-hydro-5-oxo-6-methyl-1,2,4-triazin-3-yl)hydrazide] | 0.019 | 1.1 |

From patent publication US6518269B1, “Cancer treatment” (University of Arizona Foundation, priority 2000, dated 2003)
